Values after ≈ are worked out from the molar mass of the structure shown.

Conditions in one data set: not given
The logP is a log measure of how a compound divides between an organic and an aqueous phase. The low end stands for a more hydrophilic compound, the high end for a more lipophilic compound. `CN1C(=O)CC[C@H]1c1cccnc1` yielded a logP of 0.07.
As for `OCc1c2ccccc2cc2ccccc12`, the logP came to 3.04.
On the same count and under the same terms, then `Cc1cccc2c1ccc1ccccc12`, with 5.08; and `CCCn1ccc(=O)c(O)c1`, with -0.17.
As usually defined, the solubility is the concentration that dissolves in the medium under given conditions. `Nc1cccc(Cl)c1` yielded a solubility of 42.3 mM (≈ 5400 µg/mL).
`CC(CCC(=O)NCC(=O)O)C1CCC2C3CCC4CC(O)CCC4(C)C3CC(O)C12C` (stereo not given) displayed a logP of 2.25.
The compound `COc1c(Cl)cc(Cl)c(Cl)c1Cl` came in with a logP of 4.75.
Same read-out and setting: as for `Cc1ccc(OCCN(C)C)cc1`, the figure is 2.17.
In turn, `COC1=CC(=O)C(OC)=C(OC)C1=O` yielded a logP of 0.22.
On the same count and under the same terms, as for `COc1cccc(Nc2ccccc2C(=O)O)c1`, the figure is 4.31.
As for `CCCCCCCCCCCCCCCCCCCCCC(=O)O`, the solubility worked out at 4.7e-05 mM (≈ 0.016 µg/mL).
`CCCCCCCCCC` registered a logP of 5.01.
Still for that read-out and setting: then `Clc1cccc(-c2c(Cl)ccc(Cl)c2Cl)c1Cl`, with 6.04.
Still for that read-out and setting: as for `CSc1nc(C(Cl)(Cl)Cl)nc(C(Cl)(Cl)Cl)n1`, the figure is 4.42; as for `COc1cccc(C=O)c1`, 1.71; as for `c1ccc(Cn2ccnc2)cc1`, 1.6.
Same read-out and setting: then `CC(=O)NCCc1c[nH]c2ccccc12`, with 1.41.
With `CCn1cc(C(=O)O)c(=O)c2cc(F)c(N3CCNCC3)c(F)c21`, the logP was -0.57.
Same read-out and setting: then `CN(C)P(=O)(N1CCCC1)N1CCCC1`, with 1.88; and `CCCCCOC(C)=O`, with 2.3; and `COP(N)(=S)Oc1ccccc1C(=O)OC(C)C` (stereo not given), with 2.7.
As for `COP(=S)(OC)Oc1ccc(C#N)cc1`, the logP turned out to be 2.71.

The same data set, now with this note: 20 °C.
`CCOC(=O)C(O)(c1ccc(Cl)cc1)c1ccc(Cl)cc1` came in with a solubility of 0.0351 mM (≈ 11.4 µg/mL).
With `CS(=O)(=O)F`, the solubility was determined as 306 mM (≈ 30000 µg/mL). This solubility lies about 8700-fold higher than the previous one.
Still for that read-out and setting: then `O=c1c(Cl)c(Cl)cnn1-c1ccccc1`, with 0.415 mM (≈ 100 µg/mL); and `C=COC`, with 258 mM (≈ 15000 µg/mL); and `C=CCN(CC=C)c1c(C)cc(OC(=O)NC)cc1C`, with 0.255 mM (≈ 70 µg/mL).
Same read-out and setting: then `CCc1cccc(C)c1N(C(=O)CCl)C(C)COC` (stereo not given), with 1.87 mM (≈ 530 µg/mL); and `COCc1cnc(C2=NC(C)(C(C)C)C(=O)N2)c(C(=O)O)c1` (stereo not given), with 14.5 mM (≈ 4410 µg/mL).

Staying with this data set, now noted: 23.0 °C.
The compound `CCC/C=C/C=O` came in with a log10 OH rate constant (cm³/molecule/s) of -10.4.

The data set is the same for the next values; noted with them: 24 °C.
`CCCN(CCC)N=O` returned a solubility of 99.9 mM (≈ 13000 µg/mL).
Still for that read-out and setting: as for `Clc1cc(Cl)c(-c2cc(Cl)c(Cl)cc2Cl)cc1Cl`, the figure is 2.63e-06 mM (≈ 0.00095 µg/mL).

The data set is the same for the next values; noted with them: 25 °C.
On to `C[Se]C`, for which the solubility turned out to be 224 mM (≈ 24400 µg/mL).
Same read-out and setting: then `CCCc1ccccc1`, with 0.434 mM (≈ 52.2 µg/mL); and `NNc1ccccc1`, with 1170 mM (≈ 127000 µg/mL); and `COc1ccc(C(c2ccc(OC)cc2)C(Cl)(Cl)Cl)cc1`, with 0.000289 mM (≈ 0.1 µg/mL).
Still for that read-out and setting: then `CCOC(=O)[C@H](CCc1ccccc1)N[C@@H](C)C(=O)N1CCC[C@H]1C(=O)O`, with 43.6 mM (≈ 16400 µg/mL); and `O=C(O)Cc1ccc(O)cc1`, with 399 mM (≈ 60700 µg/mL).
On the same count and under the same terms, as for `CCCN(CCC)c1c([N+](=O)[O-])cc(C(C)C)cc1[N+](=O)[O-]`, the figure is 0.000339 mM (≈ 0.105 µg/mL).
`CN(C)c1ccc(N=Nc2ccc(N)cc2)cc1` came in with a solubility of 0.0255 mM (≈ 6.12 µg/mL).
On to `c1ccc2c(c1)ccc1c3ccc4ccccc4c3[nH]c21`, for which the solubility turned out to be 3.78e-05 mM (≈ 0.0101 µg/mL).
As for `CCCCCCCCCCN`, the solubility is 3.5 mM (≈ 550 µg/mL). Compared with the last compound, the solubility is about 93000-fold higher.
The same measure, in the same setting: then `CC(C)(C)c1cccc(O)c1`, with 13.8 mM (≈ 2070 µg/mL).
`CCCCCCCCOP(=O)(Oc1ccccc1)Oc1ccccc1`: the solubility is 0.000386 mM (≈ 0.14 µg/mL).
In the case of `COC(C)(C)CC(C)=O`, the solubility stood at 2150 mM (≈ 280000 µg/mL).
In the case of `O=NN(c1ccccc1)c1ccccc1`, the solubility was 0.177 mM (≈ 35 µg/mL).
For the compound `O=C(O)C1CCCCC1`, the solubility is 35.9 mM (≈ 4600 µg/mL). Compared with the last compound, the solubility is about 200-fold higher.
As for `CCc1ccccc1O`, the solubility is 43.7 mM (≈ 5340 µg/mL).
Same read-out and setting: then `CCOc1nc(F)cc2nc(S(=O)(=O)Nc3c(Cl)cccc3C(=O)OC)nn12`, with 0.0372 mM (≈ 16 µg/mL).
`ClC(Cl)=C(Cl)C(Cl)(Cl)Cl` returned a solubility of 0.0684 mM (≈ 17 µg/mL). Compared with the last compound, the solubility is about 1.8-fold higher.
On the same count and under the same terms, then `CCCCOCCOC(=O)COc1ccc(Cl)cc1Cl`, with 0.0374 mM (≈ 12 µg/mL).

The same data set, now with this note: 25.0 °C.
Take `C[Se]C`: the log10 OH rate constant (cm³/molecule/s) was -10.2.
As to `CCOC(=O)NC`, the log10 OH rate constant (cm³/molecule/s) was -11.1.
The compound `COC(F)(F)C(F)(F)C(F)(F)F` returned a log10 OH rate constant (cm³/molecule/s) of -13.9.
For the compound `CCCCCl`, the log10 OH rate constant (cm³/molecule/s) is -11.8.
`CC1OCCO1` yielded a log10 OH rate constant (cm³/molecule/s) of -11.
Consider `OCCOCCO`, for which the log10 OH rate constant (cm³/molecule/s) is -10.5.
The compound `FCOC(C(F)(F)F)C(F)(F)F` yielded a log10 OH rate constant (cm³/molecule/s) of -13.1.
As to `COC(F)(C(F)(F)F)C(F)(F)F`, the log10 OH rate constant (cm³/molecule/s) was -13.8.
On the same count and under the same terms, as for `COC(F)(F)C(F)F`, the figure is -12.7; as for `CC1CCCO1` (stereo not given), -10.7; as for `O=C/C=C/C=O`, -10.4.

Staying with this data set, now noted: 27.0 °C.
For the compound `CCC(=O)NC`, the log10 OH rate constant (cm³/molecule/s) is -11.1.
Same read-out and setting: as for `O=Cc1ccco1`, the figure is -10.5; as for `Cc1cccc(O)c1O`, -9.69.

Values taken from the OPERA property sets (Mansouri et al. 2018).
